Reference: ChEMBL document CHEMBL5584357, “Corannulene Amino Acid-Derived Water-Soluble Amphiphilic Buckybowls as Broad-Spectrum Membrane Targeting Antibacterial Agents” (J Med Chem, 2024)
Values after ≈ are worked out from the molar mass of the structure shown. Active and inactive are the calls of the source. The calls are words filed in the database; no cut-off is given here. Peptide text beside a SMILES is read from it.

What was measured:
Staphylococcus aureus [1] = test: Induction of cell membrane damage in Staphylococcus aureus ATCC 25923 at 5 times MIC incubated for 60 mins by SEM analysis; type: functional, organism-based
Staphylococcus aureus [2] = test: Bactericidal activity against Staphylococcus aureus VRS1 at 4 times MIC incubated for 24 hrs by time kill assay relative to control; type: functional
Staphylococcus aureus [3] = test: Antibacterial activity against methicillin-resistant Staphylococcus aureus ATCC BAA-44 incubated for 16 to 18 hrs by broth microdilution method; type: functional; details: time 16-18 hrs
Escherichia coli [4] = test: Induction of cell membrane damage in Escherichia coli ATCC 25922 at 5 times MIC incubated for 60 mins by PI staining based FACS analysis; type: functional, organism-based
Acinetobacter baumannii = test: Antibacterial activity against Acinetobacter baumanni ATCC 19606 incubated for 16 to 18 hrs by broth microdilution method; type: functional; details: time 16-18 hrs
Pseudomonas aeruginosa = test: Antibacterial activity against Pseudomonas aeruginosa ATCC BAA-427 incubated for 16 to 18 hrs by broth microdilution method; type: functional; details: time 16-18 hrs
Escherichia coli [5] = test: Antibacterial activity against Escherichia coli ATCC 25922 incubated for 16 to 18 hrs by broth microdilution method; type: functional; details: time 16-18 hrs
Staphylococcus aureus [6] = test: Induction of cell membrane damage in Staphylococcus aureus ATCC 25923 at 5 times MIC incubated for 60 mins by PI staining based FACS analysis; type: functional, organism-based
Staphylococcus aureus [7] = test: Antibacterial activity against methicillin-resistant Staphylococcus aureus ATCC 33591 incubated for 16 to 18 hrs by broth microdilution method; type: functional; details: time 16-18 hrs
Staphylococcus aureus [8] = test: Antibacterial activity against Staphylococcus aureus ATCC 25923 incubated for 16 to 18 hrs by broth microdilution method; type: functional; details: time 16-18 hrs
Escherichia coli [9] = test: Bactericidal activity against Escherichia coli ATCC 25922 incubated for 16 hrs; type: functional
Staphylococcus aureus [10] = test: Induction of cell membrane damage in Staphylococcus aureus ATCC 25923 assessed as membrane distortion at 5 times MIC incubated for 60 mins by SEM analysis; type: functional, organism-based
Escherichia coli [11] = test: Induction of cell membrane damage in Escherichia coli ATCC 25922 at 1 to 5 times MIC by SYTOX green fluorescence based analysis; type: functional, organism-based
Staphylococcus aureus [12] = test: Induction of cell membrane damage in Staphylococcus aureus ATCC 25923 assessed as bacterial content leakage at 5 times MIC incubated for 60 mins by SEM analysis; type: functional, organism-based
[13] = Cytotoxicity against mouse 3T3-L1 cells assessed as cell viability upto 60 uM incubated for 4 hrs by MTT assay relative to control; type: toxicity, cell-based; details: read-out: Activity
Staphylococcus aureus [14] = test: Induction of cell membrane damage in Staphylococcus aureus ATCC 25923 at 1 to 5 times MIC by SYTOX green fluorescence based analysis; type: functional, organism-based
Staphylococcus aureus [15] = test: Induction of cell membrane damage in Staphylococcus aureus ATCC 25923 assessed as membrane blebbing at 5 times MIC incubated for 60 mins by SEM analysis; type: functional, organism-based
Escherichia coli [16] = test: Induction of cell membrane damage in Escherichia coli ATCC 25922 assessed as membrane blebbing at 5 times MIC incubated for 60 mins by SEM analysis; type: functional, organism-based
Staphylococcus aureus [17] = test: Bactericidal activity against Staphylococcus aureus ATCC 25923 incubated for 16 hrs; type: functional
Escherichia coli [18] = test: Induction of cell membrane damage in Escherichia coli ATCC 25922 assessed as wrinkling on bacterial surface at 5 times MIC incubated for 60 mins by SEM analysis; type: functional, organism-based
[19] = Hemolytic activity against human RBCs upto 100 uM incubated for 45 mins by absorbance based assay; type: toxicity, cell-based, Erythrocyte; details: red blood cells (erythrocytes), read-out: Activity
Erythrocyte = test: Hemolytic activity against human RBCs upto 70 uM incubated for 45 mins by absorbance based assay; type: toxicity, cell-based; details: 0.75 h
Staphylococcus aureus [20] = test: Antibacterial activity against Staphylococcus aureus ATCC 25923 infected in BALB/c mouse assessed as bacterial load in liver at 30 mg/kg, ip measured after 18 hrs (Rvb ~ 1.75 x10^7); type: functional
[21] = Acute toxicity in BALB/c mouse assessed as animal survival at 50 mg/kg, ip measured for 7 days; type: organism-based; details: in vivo, 168 h, time 7 day
[22] = Toxicity in BALB/c mouse assessed as animal death at 15 to 30 mg/kg, ip measured for 18 hrs; type: organism-based; details: in vivo, dose 15-30 mg/kg
Staphylococcus aureus [23] = test: Antibacterial activity against Staphylococcus aureus ATCC 25923 infected in BALB/c mouse assessed as bacterial load in blood at 30 mg/kg, ip measured after 18 hrs (Rvb ~ 6 x10^6); type: functional
Staphylococcus aureus [24] = test: Antimicrobial activity against methicillin-resistant Staphylococcus aureus; type: functional, organism-based
[25] = Acute toxicity in BALB/c mouse assessed as signs of toxicity at 50 mg/kg, ip measured for 7 days; type: organism-based; details: in vivo, 168 h, time 7 day
Staphylococcus aureus [26] = test: Antibacterial activity against Staphylococcus aureus ATCC 25923 infected in BALB/c mouse assessed as bacterial load in spleen at 30 mg/kg, ip measured after 18 hrs (Rvb ~ 1 x10^7); type: functional
Staphylococcus aureus [27] = test: Bactericidal activity against Staphylococcus aureus VRS1 at 4 times MIC incubated for 6 hrs by time kill assay relative to control; type: functional
Staphylococcus aureus [28] = test: Bactericidal activity against Staphylococcus aureus VRS1 at 1 to 4 times MIC by time kill assay; type: functional, organism-based; details: time <= 24.0 hrs
Staphylococcus aureus [29] = test: Antibacterial activity against Staphylococcus aureus ATCC 25923 infected in BALB/c mouse assessed as bacterial load in lung at 30 mg/kg, ip measured after 18 hrs (Rvb ~ 5 x10^6); type: functional
Staphylococcus aureus [30] = test: Antimicrobial activity against vancomycin-resistant Staphylococcus aureus; type: functional, organism-based

| SMILES | MIC (Staphylococcus aureus [3]) [µM] | Activity (Escherichia coli [4]) | MIC (Acinetobacter baumannii) [µM] | MIC (Pseudomonas aeruginosa) [µM] | MIC (Escherichia coli [5]) [µM] | Activity (Staphylococcus aureus [6]) | MIC (Staphylococcus aureus [7]) [µM] | MIC (Staphylococcus aureus [8]) [µM] | MBC (Escherichia coli [9]) [µM] | Activity (Staphylococcus aureus [10]) | Activity (Escherichia coli [11]) | Activity (Staphylococcus aureus [12]) | viability at 4 h, up to 60 µM [13] [%] | Activity (Staphylococcus aureus [14]) | Activity (Staphylococcus aureus [15]) | Activity (Escherichia coli [16]) | MBC (Staphylococcus aureus [17]) [µM] | Activity (Escherichia coli [18]) | other results |
| --- | --- | --- | --- | --- | --- | --- | --- | --- | --- | --- | --- | --- | --- | --- | --- | --- | --- | --- | --- |
| CC[C@H](C)[C@H](NC(=O)[C@H](CCCNC(=N)N)NC(=O)CNC(=O)[C@H](CC(C)C)NC(=O)[C@H](Cc1ccccc1)NC(=O)[C@H](CCCCN)NC(=O)[C@H](CO)NC(=O)[C@H](Cc1ccccc1)NC(=O)[C@H](Cc1c[nH]c2ccccc12)NC(=O)[C@H](CCC(N)=O)NC(=O)[C@@H](NC(=O)[C@@H](N)Cc1ccccc1)C(C)C)C(=O)N[C@@H](CC(C)C)C(N)=O (H-FVQWFSKFLGRIL-NH2) | – | – | – | – | – | – | – | – | – | – | – | – | – | – | – | – | – | – | Activity (Staphylococcus aureus [1]): Active |
| CCCCCCCCCC(=O)N[C@@H](Cc1c[nH]c2ccccc12)C(=O)N[C@H](CC(N)=O)C(=O)N[C@@H](CC(=O)O)C(=O)N[C@@H]1C(=O)NCC(=O)N[C@@H](CCCN)C(=O)N[C@@H](CC(=O)O)C(=O)N[C@H](C)C(=O)N[C@@H](CC(=O)O)C(=O)NCC(=O)N[C@H](CO)C(=O)N[C@@H]([C@H](C)CC(=O)O)C(=O)N[C@@H](CC(=O)c2ccccc2N)C(=O)O[C@@H]1C | – | – | – | – | – | – | – | – | – | – | – | – | – | – | – | – | – | – | Activity (Staphylococcus aureus [2]): 100% |
| COC(=O)[C@H](CCCNC(=N)NS(=O)(=O)c1ccc(C)cc1)NC(=O)[C@@H](N)Cc1cc2ccc3ccc4ccc5ccc1c1c5c4c3c21 | > 400 | Active | > 400 | > 400 | > 400 | Active | > 400 | > 400 | – | – | – | – | – | – | – | – | – | – | – |
| COC(=O)[C@H](CCCc1cc2ccc3ccc4ccc5ccc1c1c5c4c3c21)NC(=O)[C@@H](N)CCCCN | 12.5 (≈ 6.35 µg/mL) | Active | 25 (≈ 12.7 µg/mL) | 25 (≈ 12.7 µg/mL) | 25 (≈ 12.7 µg/mL) | Active | 12.5 (≈ 6.35 µg/mL) | 12.5 (≈ 6.35 µg/mL) | 25 (≈ 12.7 µg/mL) | Active | inactive | Active | 41 | Active | Active | Active | 12.5 (≈ 6.35 µg/mL) | Active | – |
| O=C(O)c1cn(C2CC2)c2cc(N3CCNCC3)c(F)cc2c1=O [CIPROFLOXACIN] | 0.39 (≈ 0.129 µg/mL) | – | 0.39 (≈ 0.129 µg/mL) | 1.56 (≈ 0.517 µg/mL) | 0.39 (≈ 0.129 µg/mL) | – | 1.56 (≈ 0.517 µg/mL) | 0.39 (≈ 0.129 µg/mL) | 0.39 (≈ 0.129 µg/mL) | – | – | – | – | – | – | – | 0.39 (≈ 0.129 µg/mL) | – | – |
| COC(=O)[C@H](Cc1cc2ccc3ccc4ccc5ccc1c1c5c4c3c21)NC(=O)[C@H](N)CCCCN | 25 (≈ 12 µg/mL) | Active | 50 (≈ 24 µg/mL) | 50 (≈ 24 µg/mL) | 100 (≈ 48 µg/mL) | Active | 25 (≈ 12 µg/mL) | 25 (≈ 12 µg/mL) | 200 (≈ 95.9 µg/mL) | Active | inactive | Active | 3 | Active | Active | Active | 50 (≈ 24 µg/mL) | Active | – |
| COC(=O)[C@H](Cc1cc2ccc3ccc4ccc5ccc1c1c5c4c3c21)NC(=O)CNC(=O)[C@@H](N)CCCCN | 12.5 (≈ 6.71 µg/mL) | Active | 100 (≈ 53.7 µg/mL) | 50 (≈ 26.8 µg/mL) | 50 (≈ 26.8 µg/mL) | Active | 12.5 (≈ 6.71 µg/mL) | 12.5 (≈ 6.71 µg/mL) | 50 (≈ 26.8 µg/mL) | – | inactive | – | 47 | Active | – | – | 50 (≈ 26.8 µg/mL) | – | hemolysis at 0.75 h, up to 100 µM [19]: ~3% |
| CN(C)[C@@H]1C(O)=C(C(N)=O)C(=O)[C@@]2(O)C(O)=C3C(=O)c4c(O)cccc4[C@@](C)(O)[C@H]3C[C@@H]12 [TETRACYCLINE] | 0.78 (≈ 0.347 µg/mL) | – | 0.39 (≈ 0.173 µg/mL) | 1.56 (≈ 0.693 µg/mL) | 0.78 (≈ 0.347 µg/mL) | – | 0.78 (≈ 0.347 µg/mL) | 0.39 (≈ 0.173 µg/mL) | 0.78 (≈ 0.347 µg/mL) | – | – | – | – | – | – | – | 0.78 (≈ 0.347 µg/mL) | – | – |
| COC(=O)[C@H](CCCc1cc2ccc3ccc4ccc5ccc1c1c5c4c3c21)NC(=O)CNC(=O)[C@@H](N)CCCCN | 12.5 (≈ 7.06 µg/mL) | Active | 50 (≈ 28.2 µg/mL) | 50 (≈ 28.2 µg/mL) | 50 (≈ 28.2 µg/mL) | Active | 12.5 (≈ 7.06 µg/mL) | 12.5 (≈ 7.06 µg/mL) | 50 (≈ 28.2 µg/mL) | – | inactive | – | 62 | Active | – | – | 12.5 (≈ 7.06 µg/mL) | – | hemolysis at 0.75 h, up to 100 µM [19]: ~5% |
| COC(=O)[C@H](Cc1cc2ccc3ccc4ccc5ccc1c1c5c4c3c21)NC(=O)[C@@H](N)CCCCN.Cl.Cl | 12.5 | Active | 200 | 200 | 50 | Active | 25 | 25 | 50 | Active | inactive | Active | 71 | Active | Active | Active | 50 | Active | Activity (Erythrocyte): Non-Toxic; Activity (Staphylococcus aureus [20]): ~1.2 10^6CFU/ml; Activity [21]: Non-Toxic; Activity [22]: Non-Toxic; Activity (Staphylococcus aureus [23]): ~7 10^4CFU/ml; Activity (Staphylococcus aureus [24]): Active; Activity [25]: Non-Toxic; Activity (Staphylococcus aureus [26]): ~6.5 10^5CFU/ml; Activity (Staphylococcus aureus [27]): 100%; Activity (Staphylococcus aureus [28]): Dose-Dependent Effect; Activity (Staphylococcus aureus [29]): ~4.5 10^4CFU/ml; Activity (Staphylococcus aureus [30]): Active |
